In ChEMBL document CHEMBL1201862, “PubChem BioAssay data set” (2004):
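The compound was tested at five concentrations on cells cultured in 96-well plates, with a 48-hour exposure period. GI50 marks 50% less growth.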 Active and inactive are the calls of the source. No stated cut-off is given here; in the data, active = GI50 up to about 1.1 µM and inactive = higher.

What was measured:
Experiment in all cases: growth of human tumour cells (NCI), 48 h
NCI/ADR-RES = test system: NCI/ADR-RES
CCRF-CEM = test system: CCRF-CEM
KM12 = test system: KM12
OVCAR-3 = test system: OVCAR-3
RPMI-8226 = test system: RPMI-8226
SW-620 = test system: SW-620
SR = test system: SR
SNB-19 = test system: SNB-19
Hs-578T = test system: Hs-578T
A549 = test system: A549
HT-29 = test system: HT-29
MOLT-4 = test system: MOLT-4
HOP-62 = test system: HOP-62
SF-295 = test system: SF-295
SK-MEL-28 = test system: SK-MEL-28
SK-OV-3 = test system: SK-OV-3
DU-145 = test system: DU-145
TK-10 = test system: TK-10
M14 = test system: M14
NCI-H460 = test system: NCI-H460
OVCAR-5 = test system: OVCAR-5
OVCAR-8 = test system: OVCAR-8
MDA-N = test system: MDA-N
IGROV-1 = test system: IGROV-1
A498 = test system: A498
NCI-H226 = test system: NCI-H226
CAKI-1 = test system: CAKI-1
K562 = test system: K562
COLO 205 = test system: COLO 205
UACC-257 = test system: UACC-257
U-251 = test system: U-251
SNB-75 = test system: SNB-75
PC-3 = test system: PC-3
ACHN = test system: ACHN
SF-539 = test system: SF-539
NCI-H522 = test system: NCI-H522
BT-549 = test system: BT-549
SK-MEL-2 = test system: SK-MEL-2
LOX IMVI = test system: LOX IMVI
HCT-15 = test system: HCT-15
MCF7 = test system: MCF7
UO-31 = test system: UO-31
786-0 = test system: 786-0
HCT-116 = test system: HCT-116
MDA-MB-231 = test system: MDA-MB-231
OVCAR-4 = test system: OVCAR-4
EKVX = test system: EKVX
NCI-H23 = test system: NCI-H23
UACC-62 = test system: UACC-62
HL-60 = test system: HL-60
MDA-MB-435 = test system: MDA-MB-435
SN12C = test system: SN12C
SF-268 = test system: SF-268
SK-MEL-5 = test system: SK-MEL-5
T47D = test system: T47D
RXF 393 = test system: RXF 393
Malme-3M = test system: Malme-3M
HOP-92 = test system: HOP-92
HCC 2998 = test system: HCC 2998

CS(=O)(=O)OCC1OC(n2ccc(NC(=O)c3ccccc3)nc2=O)CC1OS(C)(=O)=O (configuration not stated)
GI50 (NCI/ADR-RES): > 100 µM (inactive) | GI50 (CCRF-CEM): > 100 µM (inactive) | GI50 (KM12): > 100 µM (inactive) | GI50 (OVCAR-3): > 100 µM (inactive) | GI50 (RPMI-8226): > 100 µM (inactive) | GI50 (SW-620): > 100 µM (inactive) | GI50 (SR): > 100 µM (inactive) | GI50 (SNB-19): > 100 µM (inactive) | GI50 (Hs-578T): > 100 µM (inactive) | GI50 (A549): > 100 µM (inactive) | GI50 (HT-29): > 100 µM (inactive) | GI50 (MOLT-4): > 100 µM (inactive) | GI50 (HOP-62): > 100 µM (inactive) | GI50 (SF-295): > 100 µM (inactive) | GI50 (SK-MEL-28): > 100 µM (inactive) | GI50 (SK-OV-3): > 100 µM (inactive) | GI50 (DU-145): > 100 µM (inactive) | GI50 (TK-10): > 100 µM (inactive) | GI50 (M14): > 100 µM (inactive) | GI50 (NCI-H460): > 100 µM (inactive) | GI50 (OVCAR-5): > 100 µM (inactive) | GI50 (OVCAR-8): > 100 µM (inactive) | GI50 (MDA-N): > 100 µM (inactive) | GI50 (IGROV-1): > 100 µM (inactive) | GI50 (A498): > 100 µM (inactive) | GI50 (NCI-H226): > 100 µM (inactive) | GI50 (CAKI-1): > 100 µM (inactive) | GI50 (K562): > 100 µM (inactive) | GI50 (COLO 205): > 100 µM (inactive) | GI50 (UACC-257): > 100 µM (inactive) | GI50 (U-251): > 100 µM (inactive) | GI50 (SNB-75): > 100 µM (inactive) | GI50 (PC-3): > 100 µM (inactive) | GI50 (ACHN): > 100 µM (inactive) | GI50 (SF-539): > 100 µM (inactive) | GI50 (NCI-H522): > 100 µM (inactive) | GI50 (BT-549): > 100 µM (inactive) | GI50 (SK-MEL-2): > 100 µM (inactive) | GI50 (LOX IMVI): > 100 µM (inactive) | GI50 (HCT-15): > 100 µM | GI50 (MCF7): > 100 µM (inactive) | GI50 (UO-31): > 10 µM (inactive) | GI50 (786-0): > 100 µM (inactive) | GI50 (HCT-116): > 100 µM (inactive) | GI50 (MDA-MB-231): > 100 µM (inactive) | GI50 (OVCAR-4): > 100 µM (inactive) | GI50 (EKVX): > 100 µM (inactive) | GI50 (NCI-H23): > 100 µM (inactive) | GI50 (UACC-62): > 100 µM (inactive) | GI50 (HL-60): > 100 µM (inactive) | GI50 (MDA-MB-435): > 100 µM (inactive) | GI50 (SN12C): > 100 µM (inactive) | GI50 (SF-268): > 100 µM (inactive) | GI50 (SK-MEL-5): > 100 µM (inactive) | GI50 (T47D): > 100 µM (inactive)

CCO[C@H]1C[C@@H](c2ccccc2)[C@]2(C)C[C@H](C(=O)OC)ON2O1
GI50 (NCI/ADR-RES): > 100 µM (inactive) | GI50 (CCRF-CEM): > 100 µM (inactive) | GI50 (KM12): > 100 µM (inactive) | GI50 (OVCAR-3): > 100 µM (inactive) | GI50 (RPMI-8226): > 100 µM (inactive) | GI50 (SW-620): > 100 µM (inactive) | GI50 (SNB-19): > 100 µM (inactive) | GI50 (RXF 393): > 100 µM (inactive) | GI50 (Hs-578T): > 100 µM (inactive) | GI50 (A549): > 100 µM (inactive) | GI50 (HT-29): > 100 µM (inactive) | GI50 (MOLT-4): > 100 µM (inactive) | GI50 (HOP-62): > 100 µM (inactive) | GI50 (SF-295): > 100 µM (inactive) | GI50 (SK-MEL-28): > 100 µM (inactive) | GI50 (DU-145): > 100 µM (inactive) | GI50 (TK-10): > 100 µM (inactive) | GI50 (M14): > 100 µM (inactive) | GI50 (OVCAR-5): > 100 µM (inactive) | GI50 (OVCAR-8): > 100 µM (inactive) | GI50 (MDA-N): > 100 µM (inactive) | GI50 (IGROV-1): > 100 µM (inactive) | GI50 (A498): > 100 µM (inactive) | GI50 (NCI-H226): > 100 µM (inactive) | GI50 (CAKI-1): > 100 µM (inactive) | GI50 (K562): > 100 µM (inactive) | GI50 (COLO 205): > 100 µM (inactive) | GI50 (UACC-257): > 100 µM (inactive) | GI50 (U-251): > 100 µM (inactive) | GI50 (PC-3): > 100 µM (inactive) | GI50 (ACHN): > 100 µM (inactive) | GI50 (SF-539): > 100 µM (inactive) | GI50 (NCI-H522): > 100 µM (inactive) | GI50 (BT-549): > 100 µM (inactive) | GI50 (Malme-3M): > 100 µM (inactive) | GI50 (SK-MEL-2): > 100 µM (inactive) | GI50 (LOX IMVI): > 100 µM (inactive) | GI50 (HCT-15): > 100 µM | GI50 (HOP-92): > 100 µM (inactive) | GI50 (MCF7): > 100 µM (inactive) | GI50 (UO-31): > 100 µM (inactive) | GI50 (786-0): > 100 µM (inactive) | GI50 (HCT-116): > 100 µM (inactive) | GI50 (MDA-MB-231): > 100 µM (inactive) | GI50 (OVCAR-4): > 100 µM (inactive) | GI50 (EKVX): > 100 µM (inactive) | GI50 (NCI-H23): > 100 µM (inactive) | GI50 (UACC-62): > 100 µM (inactive) | GI50 (HL-60): > 100 µM (inactive) | GI50 (MDA-MB-435): > 100 µM (inactive) | GI50 (SN12C): > 100 µM (inactive) | GI50 (SF-268): > 100 µM (inactive) | GI50 (SK-MEL-5): > 100 µM (inactive) | GI50 (T47D): > 100 µM (inactive)

Clc1ccc(CSCCc2ccncc2)cc1Cl
GI50 (HCC 2998): 18.2 µM (inactive) | GI50 (NCI/ADR-RES): 19.7 µM (inactive) | GI50 (CCRF-CEM): 20.6 µM (inactive) | GI50 (KM12): 21.2 µM (inactive) | GI50 (OVCAR-3): 16.1 µM (inactive) | GI50 (RPMI-8226): 14.6 µM (inactive) | GI50 (SW-620): 19.6 µM (inactive) | GI50 (SNB-19): 17.8 µM (inactive) | GI50 (RXF 393): 21.9 µM (inactive) | GI50 (Hs-578T): 23.4 µM (inactive) | GI50 (A549): 28.1 µM (inactive) | GI50 (HT-29): 15.7 µM (inactive) | GI50 (MOLT-4): 15.8 µM (inactive) | GI50 (HOP-62): 22.6 µM (inactive) | GI50 (SF-295): 17.5 µM (inactive) | GI50 (SK-MEL-28): 22.7 µM (inactive) | GI50 (SK-OV-3): 27.8 µM (inactive) | GI50 (DU-145): 29.2 µM (inactive) | GI50 (TK-10): 42.9 µM (inactive) | GI50 (M14): 17.2 µM (inactive) | GI50 (NCI-H460): 31.8 µM (inactive) | GI50 (OVCAR-5): 23.3 µM (inactive) | GI50 (OVCAR-8): 19.7 µM (inactive) | GI50 (MDA-N): 20.2 µM (inactive) | GI50 (IGROV-1): 20.8 µM (inactive) | GI50 (A498): 13.2 µM (inactive) | GI50 (NCI-H226): 22 µM (inactive) | GI50 (CAKI-1): 38.5 µM (inactive) | GI50 (K562): 19.3 µM (inactive) | GI50 (COLO 205): 14.2 µM (inactive) | GI50 (UACC-257): 35.9 µM (inactive) | GI50 (U-251): 15.2 µM (inactive) | GI50 (SNB-75): 22.9 µM (inactive) | GI50 (PC-3): 21.2 µM (inactive) | GI50 (ACHN): 21.7 µM (inactive) | GI50 (SF-539): 17 µM (inactive) | GI50 (NCI-H522): 15.4 µM (inactive) | GI50 (BT-549): 19.6 µM (inactive) | GI50 (Malme-3M): 21 µM (inactive) | GI50 (SK-MEL-2): 15.8 µM (inactive) | GI50 (LOX IMVI): > 10 µM (inactive) | GI50 (HCT-15): 22.9 µM | GI50 (HOP-92): 13.1 µM (inactive) | GI50 (MCF7): 19.5 µM (inactive) | GI50 (UO-31): 21 µM (inactive) | GI50 (786-0): 17.2 µM (inactive) | GI50 (HCT-116): 15.8 µM (inactive) | GI50 (MDA-MB-231): 15.4 µM (inactive) | GI50 (OVCAR-4): 23.1 µM (inactive) | GI50 (EKVX): 20.4 µM (inactive) | GI50 (NCI-H23): 22 µM (inactive) | GI50 (UACC-62): 15.3 µM (inactive) | GI50 (HL-60): 17 µM (inactive) | GI50 (MDA-MB-435): 22.6 µM (inactive) | GI50 (SN12C): 17.4 µM (inactive) | GI50 (SF-268): 21.9 µM (inactive) | GI50 (SK-MEL-5): 16.3 µM (inactive) | GI50 (T47D): 26.3 µM (inactive)
